Activity coefficient data for 39 compounds are collected here from the NIST ThermoML archive (doi:10.1021/je0602925).

Numbers after ± are expanded uncertainties.

The data set is described as follows: activity coefficient (dimensionless); of the first substance listed, at infinite dilution; xn = mol fraction of the nth substance listed. The note with it: Liquid, Chromatography, x1 = 0.

Consider `C=CCCCCC` [1-heptene] + CCCCCCCCCCCCCC[P+](CCCCCC)(CCCCCC)CCCCCC.F[B-](F)(F)F, for which the activity coefficient by setting is: (308.15 K) 0.663 ± 0.045; (318.15 K) 0.647 ± 0.044; (328.15 K) 0.637 ± 0.044.
Turning to `C=CCCCCC` [1-heptene] + CCCCCCCCCCCCCC[P+](CCCCCC)(CCCCCC)CCCCCC.O=S(=O)([N-]S(=O)(=O)C(F)(F)F)C(F)(F)F, the activity coefficient came to 0.558 ± 0.04 (308.15 K), 0.549 ± 0.04 (318.15 K) and 0.543 ± 0.04 (328.15 K).
As for `C=CCCCCC` [1-heptene] + CCCCCCCCCCCCCC[P+](CCCCCC)(CCCCCC)CCCCCC.[Cl-], the activity coefficient is, setting by setting: (308.15 K) 0.523 ± 0.039; (318.15 K) 0.515 ± 0.038; (328.15 K) 0.511 ± 0.038.
For `C#CCCCCC` [1-heptyne] + CCCCCCCCCCCCCC[P+](CCCCCC)(CCCCCC)CCCCCC.F[B-](F)(F)F, the activity coefficient (308.15 K) worked out at 0.374 ± 0.033, the activity coefficient (318.15 K) stood at 0.389 ± 0.034 and the activity coefficient (328.15 K) is 0.399 ± 0.034.
On to `C#CCCCCC` [1-heptyne] + CCCCCCCCCCCCCC[P+](CCCCCC)(CCCCCC)CCCCCC.O=S(=O)([N-]S(=O)(=O)C(F)(F)F)C(F)(F)F, for which the activity coefficient reads like this: (308.15 K) 0.485 ± 0.037; (318.15 K) 0.496 ± 0.038; (328.15 K) 0.502 ± 0.038.
In the case of `C#CCCCCC` [1-heptyne] + CCCCCCCCCCCCCC[P+](CCCCCC)(CCCCCC)CCCCCC.[Cl-], the activity coefficient runs as follows: (308.15 K) 0.479 ± 0.037; (318.15 K) 0.494 ± 0.038; (328.15 K) 0.504 ± 0.038.
Regarding `C#CCCCC` [1-hexyne] + CCCCCCCCCCCCCC[P+](CCCCCC)(CCCCCC)CCCCCC.F[B-](F)(F)F, the activity coefficient was determined as 0.345 ± 0.032 (308.15 K), 0.358 ± 0.033 (318.15 K) and 0.366 ± 0.033 (328.15 K).
The matching figures for `C#CCCCC` [1-hexyne] + CCCCCCCCCCCCCC[P+](CCCCCC)(CCCCCC)CCCCCC.O=S(=O)([N-]S(=O)(=O)C(F)(F)F)C(F)(F)F: 0.454 ± 0.036, 0.463 ± 0.036 and 0.468 ± 0.037.
The like results for `C#CCCCC` [1-hexyne] + CCCCCCCCCCCCCC[P+](CCCCCC)(CCCCCC)CCCCCC.[Cl-] were, in that order, 0.449 ± 0.036, 0.461 ± 0.036 and 0.468 ± 0.037.
As to `C#CCCCCCC` [1-octyne] + CCCCCCCCCCCCCC[P+](CCCCCC)(CCCCCC)CCCCCC.F[B-](F)(F)F, the activity coefficient is, setting by setting: (308.15 K) 0.387 ± 0.034; (318.15 K) 0.406 ± 0.034; (328.15 K) 0.417 ± 0.035.
Consider `C#CCCCCCC` [1-octyne] + CCCCCCCCCCCCCC[P+](CCCCCC)(CCCCCC)CCCCCC.O=S(=O)([N-]S(=O)(=O)C(F)(F)F)C(F)(F)F, for which the activity coefficient was found to be 0.511 ± 0.038 (308.15 K), 0.524 ± 0.039 (318.15 K) and 0.532 ± 0.039 (328.15 K).
Turning to `C#CCCCCCC` [1-octyne] + CCCCCCCCCCCCCC[P+](CCCCCC)(CCCCCC)CCCCCC.[Cl-], the activity coefficient reads like this: (308.15 K) 0.494 ± 0.038; (318.15 K) 0.514 ± 0.038; (328.15 K) 0.526 ± 0.039.
The like results for `c1ccccc1` [benzene] + CCCCCCCCCCCCCC[P+](CCCCCC)(CCCCCC)CCCCCC.F[B-](F)(F)F were, in that order, 0.37 ± 0.033, 0.367 ± 0.033 and 0.366 ± 0.033.
On to `c1ccccc1` [benzene] + CCCCCCCCCCCCCC[P+](CCCCCC)(CCCCCC)CCCCCC.O=S(=O)([N-]S(=O)(=O)C(F)(F)F)C(F)(F)F, for which the activity coefficient was 0.406 ± 0.034 (308.15 K), 0.403 ± 0.034 (318.15 K) and 0.402 ± 0.034 (328.15 K).
As for `c1ccccc1` [benzene] + CCCCCCCCCCCCCC[P+](CCCCCC)(CCCCCC)CCCCCC.[Cl-], the activity coefficient (308.15 K) is 0.408 ± 0.034, the activity coefficient (318.15 K) is 0.403 ± 0.034 and the activity coefficient (328.15 K) stood at 0.4 ± 0.034.
`C1CCCCCC1` [cycloheptane] + CCCCCCCCCCCCCC[P+](CCCCCC)(CCCCCC)CCCCCC.F[B-](F)(F)F: the activity coefficient reads like this: (308.15 K) 1 ± 0.063; (318.15 K) 0.979 ± 0.061; (328.15 K) 0.965 ± 0.061.
For the compound `C1CCCCCC1` [cycloheptane] + CCCCCCCCCCCCCC[P+](CCCCCC)(CCCCCC)CCCCCC.O=S(=O)([N-]S(=O)(=O)C(F)(F)F)C(F)(F)F, the activity coefficient by setting is: (308.15 K) 0.787 ± 0.051; (318.15 K) 0.779 ± 0.051; (328.15 K) 0.774 ± 0.051.
As for `C1CCCCCC1` [cycloheptane] + CCCCCCCCCCCCCC[P+](CCCCCC)(CCCCCC)CCCCCC.[Cl-], the activity coefficient was 0.861 ± 0.055 (308.15 K), 0.753 ± 0.05 (318.15 K) and 0.763 ± 0.05 (328.15 K).
Consider `C1CCCCC1` [cyclohexane] + CCCCCCCCCCCCCC[P+](CCCCCC)(CCCCCC)CCCCCC.F[B-](F)(F)F, for which the activity coefficient (308.15 K) amounted to 0.73 ± 0.048, the activity coefficient (318.15 K) turned out to be 0.719 ± 0.048 and the activity coefficient (328.15 K) was 0.712 ± 0.047.
In the case of `C1CCCCC1` [cyclohexane] + CCCCCCCCCCCCCC[P+](CCCCCC)(CCCCCC)CCCCCC.O=S(=O)([N-]S(=O)(=O)C(F)(F)F)C(F)(F)F, the activity coefficient by setting is: (308.15 K) 0.612 ± 0.043; (318.15 K) 0.609 ± 0.043; (328.15 K) 0.607 ± 0.042.
The matching figures for `C1CCCCC1` [cyclohexane] + CCCCCCCCCCCCCC[P+](CCCCCC)(CCCCCC)CCCCCC.[Cl-]: 0.631 ± 0.044, 0.627 ± 0.043 and 0.625 ± 0.043.
Turning to `C1CCCC1` [cyclopentane] + CCCCCCCCCCCCCC[P+](CCCCCC)(CCCCCC)CCCCCC.F[B-](F)(F)F, the activity coefficient (308.15 K) is 0.638 ± 0.044, the activity coefficient (318.15 K) was determined as 0.63 ± 0.044 and the activity coefficient (328.15 K) was 0.625 ± 0.043.
The matching figures for `C1CCCC1` [cyclopentane] + CCCCCCCCCCCCCC[P+](CCCCCC)(CCCCCC)CCCCCC.O=S(=O)([N-]S(=O)(=O)C(F)(F)F)C(F)(F)F: 0.562 ± 0.04, 0.559 ± 0.04 and 0.558 ± 0.04.
The like results for `C1CCCC1` [cyclopentane] + CCCCCCCCCCCCCC[P+](CCCCCC)(CCCCCC)CCCCCC.[Cl-] were, in that order, 0.579 ± 0.041, 0.576 ± 0.041 and 0.574 ± 0.041.
Turning to `CCO` [ethanol] + CCCCCCCCCCCCCC[P+](CCCCCC)(CCCCCC)CCCCCC.F[B-](F)(F)F, the activity coefficient by setting is: (308.15 K) 5.59 ± 0.38; (318.15 K) 5.36 ± 0.36; (328.15 K) 5.14 ± 0.35.
Regarding `CCO` [ethanol] + CCCCCCCCCCCCCC[P+](CCCCCC)(CCCCCC)CCCCCC.O=S(=O)([N-]S(=O)(=O)C(F)(F)F)C(F)(F)F, the activity coefficient is, setting by setting: (308.15 K) 0.884 ± 0.056; (318.15 K) 0.894 ± 0.057; (328.15 K) 0.902 ± 0.057.
For `CCO` [ethanol] + CCCCCCCCCCCCCC[P+](CCCCCC)(CCCCCC)CCCCCC.[Cl-], the activity coefficient was determined as 0.74 ± 0.049 (308.15 K), 0.737 ± 0.049 (318.15 K) and 0.735 ± 0.049 (328.15 K).
The matching figures for `CCCCCCC` [heptane] + CCCCCCCCCCCCCC[P+](CCCCCC)(CCCCCC)CCCCCC.F[B-](F)(F)F: 1 ± 0.063, 0.97 ± 0.061 and 0.952 ± 0.06.
On to `CCCCCCC` [heptane] + CCCCCCCCCCCCCC[P+](CCCCCC)(CCCCCC)CCCCCC.O=S(=O)([N-]S(=O)(=O)C(F)(F)F)C(F)(F)F, for which the activity coefficient (308.15 K) is 0.783 ± 0.051, the activity coefficient (318.15 K) turned out to be 0.769 ± 0.05 and the activity coefficient (328.15 K) is 0.761 ± 0.05.
Turning to `CCCCCCC` [heptane] + CCCCCCCCCCCCCC[P+](CCCCCC)(CCCCCC)CCCCCC.[Cl-], the activity coefficient (308.15 K) came to 0.816 ± 0.053, the activity coefficient (318.15 K) was 0.803 ± 0.052 and the activity coefficient (328.15 K) came to 0.795 ± 0.052.
Consider `C=CCCCC` [hex-1-ene] + CCCCCCCCCCCCCC[P+](CCCCCC)(CCCCCC)CCCCCC.F[B-](F)(F)F, for which the activity coefficient by setting is: (308.15 K) 0.57 ± 0.041; (318.15 K) 0.558 ± 0.04; (328.15 K) 0.551 ± 0.04.
The matching figures for `C=CCCCC` [hex-1-ene] + CCCCCCCCCCCCCC[P+](CCCCCC)(CCCCCC)CCCCCC.O=S(=O)([N-]S(=O)(=O)C(F)(F)F)C(F)(F)F: 0.501 ± 0.038, 0.494 ± 0.038 and 0.49 ± 0.037.
The like results for `C=CCCCC` [hex-1-ene] + CCCCCCCCCCCCCC[P+](CCCCCC)(CCCCCC)CCCCCC.[Cl-] were, in that order, 0.477 ± 0.037, 0.471 ± 0.037 and 0.468 ± 0.037.
`CCCCCC` [hexane] + CCCCCCCCCCCCCC[P+](CCCCCC)(CCCCCC)CCCCCC.F[B-](F)(F)F: the activity coefficient (308.15 K) stood at 0.968 ± 0.061, the activity coefficient (318.15 K) came to 0.942 ± 0.059 and the activity coefficient (328.15 K) was 0.925 ± 0.058.
As to `CCCCCC` [hexane] + CCCCCCCCCCCCCC[P+](CCCCCC)(CCCCCC)CCCCCC.O=S(=O)([N-]S(=O)(=O)C(F)(F)F)C(F)(F)F, the activity coefficient runs as follows: (308.15 K) 0.766 ± 0.05; (318.15 K) 0.751 ± 0.049; (328.15 K) 0.742 ± 0.049.
On to `CCCCCC` [hexane] + CCCCCCCCCCCCCC[P+](CCCCCC)(CCCCCC)CCCCCC.[Cl-], for which the activity coefficient reads like this: (308.15 K) 0.766 ± 0.05; (318.15 K) 0.753 ± 0.05; (328.15 K) 0.746 ± 0.049.
In the case of `CO` [methanol] + CCCCCCCCCCCCCC[P+](CCCCCC)(CCCCCC)CCCCCC.F[B-](F)(F)F, the activity coefficient was 6.68 ± 0.46 (308.15 K), 6.38 ± 0.43 (318.15 K) and 6.1 ± 0.42 (328.15 K).
The like results for `CO` [methanol] + CCCCCCCCCCCCCC[P+](CCCCCC)(CCCCCC)CCCCCC.O=S(=O)([N-]S(=O)(=O)C(F)(F)F)C(F)(F)F were, in that order, 0.942 ± 0.059, 0.958 ± 0.06 and 0.989 ± 0.062.
Take `CO` [methanol] + CCCCCCCCCCCCCC[P+](CCCCCC)(CCCCCC)CCCCCC.[Cl-]: the activity coefficient was 0.887 ± 0.056 (308.15 K), 0.879 ± 0.056 (318.15 K) and 0.873 ± 0.056 (328.15 K).
